Target: T1, hYAK3 (Homo sapiens, UniProt O43781)
T1 construct: GST (N); His6 (C); made in house; host or cells: baculovirus expression system in Sf9 cells
T1 sequence (O43781 124-526): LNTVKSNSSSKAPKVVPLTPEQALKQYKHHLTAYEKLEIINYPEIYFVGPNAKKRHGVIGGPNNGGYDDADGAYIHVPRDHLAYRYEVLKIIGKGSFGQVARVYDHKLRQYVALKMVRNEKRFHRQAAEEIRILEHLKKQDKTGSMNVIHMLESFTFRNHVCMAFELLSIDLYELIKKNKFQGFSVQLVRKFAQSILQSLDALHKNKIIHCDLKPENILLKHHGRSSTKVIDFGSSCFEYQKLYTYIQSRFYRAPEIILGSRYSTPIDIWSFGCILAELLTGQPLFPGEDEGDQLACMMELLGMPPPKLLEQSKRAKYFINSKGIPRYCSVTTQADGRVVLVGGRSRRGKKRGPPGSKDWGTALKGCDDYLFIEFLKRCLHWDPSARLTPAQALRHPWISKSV
Experiment: YAK3 Scintillation Proximity Assay using Ser164 of myelin basic protein as the phosphoacceptor (kinase assay of purified hYAK3)
Type: biochemical
Conditions: purified GST-hYak3-His6 (aa 124-526), 4 nM; 0.001 mM ATP; 4 μM Ser164 peptide; 2 hours at room temperature; pIC50 = −log10(IC50)
Procedure: Substrate phosphorylation assays were carried out as follows:
YAK3 Scintillation Proximity Assays Using Ser164 of Myelin Basic Protein as the Phosphoacceptor
The source of Ser164 substrate peptide The biotinylated Ser164, S164A peptide(Biotinyl-LGGRDSRAGS*PMARR-OH), sequence derived from the C-terminus of bovine myelin basic protein (MBP) with Ser162 substituted as Ala 162, was purchased from California Peptide Research Inc. (Napa, Calif.), and its purity was determined by HPLC. Phosphorylation occurs at position 164 (marked S* above). The calculated molecular mass of the peptide was 2166 dalton. Solid sample was dissolved at 10 mM in DMSO, aliquoted, and stored at −20° C. until use.
hYAK3: Glutathione-S-Transferase (GST)-hYak3-His6 containing amino acid residues 124-526 of human YAK3 (aa 124-526 of SEQ ID NO 2. in U.S. Pat. No. 6,323,318) was purified from baculovirus expression system in Sf9 cells using Glutathione Sepharose 4B column chromatography followed by Ni-NTA-Agarose column chromatography. Purity greater than 65% typically was achieved. Samples, in 50 mM Tris, 150 mM NaCl, 10% glycerol, 0.1% Triton, 250 mM imidazole, 10 mM β-mercapto ethanol, pH 8.0. were stored at −80° C. until use.
Kinase assay of purified hYAK3: Assays were performed in 96 well (Costar, Catalog No. 3789) or 384 well plates (Costar, Catalog No. 3705). Reaction (in 20, 25, or 40 μl volume) mix contained in final concentrations 25 mM Hepes buffer, pH 7.4; 10 mM MgCl2; 10 mM β-mercapto ethanol; 0.0025% Tween-20; 0.001 mM ATP, 0.1 μCi of [γ-^33P]ATP; purified hYAK3 (7-14 ng/assay; 4 nM final); and 4 μM Ser164 peptide. Compounds, titrated in DMSO, were evaluated at concentrations ranging from 50 μM to 0.5 nM. […] Reactions were incubated for 2 hours at room temperature and were stopped by a 75 ul addition of […] Streptavidin Scintillation Proximity beads (Amersham Pharmacia Biotech, Catalog No. RPNQ 0007) in PBS, pH 7.4, 10 mM EDTA, 0.1% Triton X-100, 1 mM ATP. Under the assay conditions defined above, the Km(apparent) for ATP was determined to be 7.2+/−2.4 μM.

Row | Compound | IC50 [nM]
1 | Cn1c(C(C)(C)C)nc2ccc(/C=C3\SC(Nc4ccccc4Cl)=NC3=O)cc21 [Example 53, (5Z)-2-[(2-Chlorophenyl)amino]-5-{[2-(1,1-dimethylethyl)-1-methyl-1H-benzimidazol-6-yl]methylidene}-1,3-thiazol-4(5H)-one] | 102 to 1000
2 | CN(C)CCn1nnc2ccc(/C=C3\SC(Nc4c(Cl)cccc4Cl)=NC3=O)cc21 [Example 58, (5Z)-2-[(2,6-dichlorophenyl)amino]-5-({1-[2-(dimethylamino)ethyl]-1H-1,2,3-benzotriazol-6-yl}methylidene)-1,3-thiazol-4(5H)-one] | 10.2 to 100
3 | Cc1nc2ccc(C=C3SC(=Nc4c(Cl)cccc4Cl)NC3=O)cc2o1 [Example 59, 2-(2,6-Dichloro-phenylimino)-5-(2-methyl-benzooxazol-6-yl-methylene)-thiazolidin-4-one] | 1.02 to 10
